Reference: US20240199612A1, “IMIDAZOPYRIDINYL INHIBITORS OF PLASMA KALLIKREIN” (SHIRE HUMAN GENETIC THERAPIES, INC., priority 2021, published 2024)

biological target: human activated kallikrein enzyme (Homo sapiens, UniProt P03952); test: Inhibition of human activated plasma kallikrein, fluorogenic peptide substrate (PFR-AMC) assay, 500 pM enzyme format; format: biochemical; details: format with 500 pM activated kallikrein, 300 uM PFR-AMC, 30 min preincubation, 10 min reaction, room temperature; read-out: Primary Dose Response Assay: Average EC50
Sequence (P03952 391-638 limits assumed): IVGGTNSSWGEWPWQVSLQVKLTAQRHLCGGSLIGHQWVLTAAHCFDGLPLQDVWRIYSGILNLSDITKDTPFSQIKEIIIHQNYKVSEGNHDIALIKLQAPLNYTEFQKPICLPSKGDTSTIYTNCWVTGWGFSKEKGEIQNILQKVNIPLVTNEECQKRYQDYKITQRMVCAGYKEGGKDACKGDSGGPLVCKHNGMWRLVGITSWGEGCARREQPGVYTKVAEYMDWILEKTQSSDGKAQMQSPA
Sequence (P03952 20-390 partner limits assumed): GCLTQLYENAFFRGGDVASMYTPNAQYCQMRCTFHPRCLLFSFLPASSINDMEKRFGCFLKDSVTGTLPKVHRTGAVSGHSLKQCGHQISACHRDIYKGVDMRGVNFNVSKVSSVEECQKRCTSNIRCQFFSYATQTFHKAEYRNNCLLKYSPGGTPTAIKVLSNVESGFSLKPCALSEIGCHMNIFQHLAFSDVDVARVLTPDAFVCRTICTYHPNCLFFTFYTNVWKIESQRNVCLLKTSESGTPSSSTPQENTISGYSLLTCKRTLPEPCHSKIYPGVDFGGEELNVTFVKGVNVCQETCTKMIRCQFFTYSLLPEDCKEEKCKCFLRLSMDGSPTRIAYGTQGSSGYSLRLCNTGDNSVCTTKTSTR
Description: Inhibitory Activity of Exemplary Compounds against Plasma Kallikrein.
Compounds were evaluated for inhibition of the human activated kallikrein enzyme in two formats of an assay employing a fluorogenic peptide substrate. In one assay format, the concentrations of reagents were as follows: 20 mM Tris pH 7.5, 1 mM EDTA, 150 mM sodium chloride, 0.1% PEG-400, 0.1% Triton X-100, 500 pM activated kallikrein enzyme, 300 uM Pro-Phe-Arg-7-amido-4-methylcoumarin (PFR-AMC) substrate. Prior to reaction initiation with substrate, enzyme and inhibitors were preincubated for 30 min at room temperature. After initiation with substrate, reactions were incubated for 10 min at room temperature and fluorescence emission at 460 nm from 380 nm excitation measured with a microplate reader. In another assay format, the concentrations of reagents were as follows: 20 mM Tris pH 7.5, 1 mM EDTA, 150 mM sodium chloride, 0.1% PEG-400, 0.1% Triton X-100, 5 pM activated kallikrein enzyme, 300 uM PFR-AMC substrate. Prior to reaction initiation with substrate, enzyme and inhibitors were preincubated for 30 min at room temperature. After initiation with substrate, reactions were incubated for 18 hr at room temperature and fluorescence emission at 460 nm from 380 nm excitation measured with a microplate reader.

Row | SMILES | EC50
1 | O=C(Nc1nccc2nn(Cc3cn4cc(C5CC5)ccc4n3)cc12)OCc1cc(Cl)ccc1-n1cnnn1 [Compound I-22, 5-chloro-2-(1H-tetrazol-1-yl)benzyl (2-((6-cyclopropylimidazo[1,2-a]pyridin-2-yl)methyl)-2H-pyrazolo[4,3-c]pyridin-4-yl)carbamate] | < 0.005 µM
2 | O=C(Nc1cc2c(cn1)nnn2Cc1cn2cc(C3CC3)ccc2n1)OCc1cccc(Cl)c1 [Compound I-20, 3-chlorobenzyl (1-((6-cyclopropylimidazo[1,2-a]pyridin-2-yl)methyl)-1H-[1,2,3]triazolo[4,5-c]pyridin-6-yl)carbamate] | 0.05 to 0.5 µM
3 | O=C(NCc1cc(Cl)ccn1)Nc1cc(NCc2cn3cc(C4CC4)ccc3n2)ncn1 [Compound I-27, 1-((4-chloropyridin-2-yl)methyl)-3-(6-(((6-cyclopropylimidazo[1,2-a]pyridin-2-yl)methyl)amino)pyrimidin-4-yl)urea] | 0.05 to 0.5 µM
4 | O=C(Nc1cc(NCc2cn3cc(C4CC4)ccc3n2)ncn1)OCc1cc(Cl)ccc1-n1cnnn1 [Compound I-8, 5-chloro-2-(1H-tetrazol-1-yl)benzyl (6-(((6-cyclopropylimidazo[1,2-a]pyridin-2-yl)methyl)amino)pyrimidin-4-yl)carbamate] | < 0.005 µM
5 | O=C(Nc1cc(NCc2cn3cc(C4CC4)ccc3n2)ncn1)N1CC(c2cccc(Cl)c2)C1 [Compound I-25, 3-(3-chlorophenyl)-N-(6-(((6-cyclopropylimidazo[1,2-a]pyridin-2-yl)methyl)amino)pyrimidin-4-yl)azetidine-1-carboxamide] | > 9 µM
6 | O=C(Nc1cc2c(cn1)ncn2Cc1cn2cc(C3CC3)ccc2n1)OCc1cc(Cl)ccc1-n1cnnn1 [Compound I-23, 5-chloro-2-(1H-tetrazol-1-yl)benzyl (1-((6-cyclopropylimidazo[1,2-a]pyridin-2-yl)methyl)-1H-imidazo[4,5-c]pyridin-6-yl)carbamate] | < 0.005 µM
7 | CC(OC(=O)Nc1cc2c(cn1)ncn2Cc1cn2cc(C3CC3)ccc2n1)c1cccc(Cl)c1 (centres unmarked) [Compound I-17, 1-(3-chlorophenyl)ethyl (1-((6-cyclopropylimidazo[1,2-a]pyridin-2-yl)methyl)-1H-imidazo[4,5-c]pyridin-6-yl)carbamate] | 0.05 to 0.5 µM
8 | CC(OC(=O)Nc1cc(NCc2cn3cc(C4CC4)ccc3n2)ccn1)c1cccc(Cl)c1 (centres unmarked) [Compound I-15, 1-(3-chlorophenyl)ethyl (4-(((6-cyclopropylimidazo[1,2-a]pyridin-2-yl)methyl)amino)pyridin-2-yl)carbamate] | < 0.005 µM
9 | O=C(Nc1cc(NCc2cn3cc(C4CC4)ccc3n2)ncn1)NC1Cc2ccc(Cl)cc21 (centres unmarked) [Compound I-32, 1-(4-chlorobicyclo[4.2.0]octa-1(6),2,4-trien-7-yl)-3-(6-(((6-cyclopropylimidazo[1,2-a]pyridin-2-yl)methyl)amino)pyrimidin-4-yl)urea] | 0.5 to 9 µM
10 | O=C(NCc1cccc(Cl)c1)Nc1cc(NCc2cn3cc(C4CC4)ccc3n2)ncn1 [Compound I-24, 1-(3-chlorobenzyl)-3-(6-(((6-cyclopropylimidazo[1,2-a]pyridin-2-yl)methyl)amino)pyrimidin-4-yl)urea] | 0.5 to 9 µM
11 | O=C(Nc1cc(NCc2cn3cc(C4CC4)ccc3n2)ncn1)OCc1cc(Cl)ccn1 [Compound I-26, (4-chloropyridin-2-yl)methyl (6-(((6-cyclopropylimidazo[1,2-a]pyridin-2-yl)methyl)amino)pyrimidin-4-yl)carbamate] | < 0.005 µM
12 | O=C(Nc1cc2c(cn1)ncn2Cc1cn2cc(C3CC3)ccc2n1)OCc1cccc(Cl)c1 [Compound I-16, 3-chlorobenzyl (1-((6-cyclopropylimidazo[1,2-a]pyridin-2-yl)methyl)-1H-imidazo[4,5-c]pyridin-6-yl)carbamate] | 0.05 to 0.5 µM
13 | O=C(NCc1nccc(Cl)n1)Nc1cc(NCc2cn3cc(C4CC4)ccc3n2)ncn1 [Compound I-29, 1-((4-chloropyrimidin-2-yl)methyl)-3-(6-(((6-cyclopropylimidazo[1,2-a]pyridin-2-yl)methyl)amino)-pyrimidin-4-yl)urea] | 0.05 to 0.5 µM
14 | Cc1ccnc(COC(=O)Nc2cc(NCc3cn4cc(C5CC5)ccc4n3)ncn2)n1 [Compound I-34, (4-methylpyrimidin-2-yl)methyl (6-(((6-cyclopropylimidazo[1,2-a]pyridin-2-yl)methyl)amino)pyrimidin-4-yl)carbamate] | 0.005 to 0.05 µM
15 | O=C(Nc1cn2c(Cc3cn4cc(C5CC5)ccc4n3)nnc2cn1)OCc1cccc(Cl)c1 [Compound I-14, 3-chlorobenzyl (3-((6-cyclopropylimidazo[1,2-a]pyridin-2-yl)methyl)-[1,2,4]triazolo[4,3-a]pyrazin-6-yl)carbamate] | 0.05 to 0.5 µM
16 | O=C(Nc1cc(N2C[C@@H](O)C[C@@H]2c2cn3cc(C4CC4)ccc3n2)ncn1)N1CC(c2ccccc2)C1 [Compound I-31, N-(6-((2R,4S)-2-(6-cyclopropylimidazo[1,2-a]pyridin-2-yl)-4-hydroxypyrrolidin-1-yl)pyrimidin-4-yl)-3-phenylazetidine-1-carboxamide] | 0.5 to 9 µM
17 | COc1cccc(COC(=O)Nc2cc(NCc3cn4cc(C5CC5)ccc4n3)ncn2)c1 [Compound I-4, 3-methoxybenzyl (6-(((6-cyclopropylimidazo[1,2-a]pyridin-2-yl)methyl)amino)pyrimidin-4-yl)carbamate] | 0.05 to 0.5 µM
18 | CCC(OC(=O)Nc1cc(NCc2cn3cc(C4CC4)ccc3n2)ncn1)c1cccc(Cl)c1 (centres unmarked) [Compound I-6, 1-(3-chlorophenyl)propyl (6-(((6-cyclopropylimidazo[1,2-a]pyridin-2-yl)methyl)amino)pyrimidin-4-yl)carbamate] | 0.05 to 0.5 µM
19 | C[C@H](OC(=O)Nc1cc(NCc2cn3cc(C4CC4)ccc3n2)ncn1)c1cccc(Cl)c1 [Compound I-3, (S)-1-(3-chlorophenyl)ethyl (6-(((6-cyclopropylimidazo[1,2-a]pyridin-2-yl)methyl)amino)pyrimidin-4-yl)carbamate] | 0.5 to 9 µM
20 | COc1ccnc(CNC(=O)Nc2cc(NCc3cn4cc(C5CC5)ccc4n3)ncn2)n1 [Compound I-30, 1-(6-(((6-cyclopropylimidazo[1,2-a]pyridin-2-yl)methyl)amino)pyrimidin-4-yl)-3-((4-methoxypyrimidin-2-yl)methyl)urea] | 0.5 to 9 µM
21 | C[C@@H](OC(=O)Nc1cc(NCc2cn3cc(C4CC4)ccc3n2)ncn1)c1cccc(Cl)c1 [Compound I-2, (R)-1-(3-chlorophenyl)ethyl (6-(((6-cyclopropylimidazo[1,2-a]pyridin-2-yl)methyl)amino)pyrimidin-4-yl)carbamate] | < 0.005 µM
22 | O=C(Nc1cc(N2C[C@@H](O)C[C@@H]2c2cn3cc(C4CC4)ccc3n2)ncn1)N1CC(c2ncccn2)C1 [Compound I-33, N-(6-((2R,4S)-2-(6-cyclopropylimidazo[1,2-a]pyridin-2-yl)-4-hydroxypyrrolidin-1-yl)pyrimidin-4-yl)-3-(pyrimidin-2-yl)azetidine-1-carboxamide] | 0.05 to 0.5 µM
23 | O=C(Nc1cc(NCc2cn3cc(C4CC4)ccc3n2)ncn1)OCc1cccc(Cl)c1 [Compound I-1, 3-Chlorobenzyl (6-(((6-cyclopropylimidazo[1,2-a]pyridin-2-yl)methyl)amino)pyrimidin-4-yl)carbamate] | 0.005 to 0.05 µM
24 | O=C(Nc1nccc2nn(Cc3cn4cc(C5CC5)ccc4n3)cc12)OCc1cccc(Cl)c1 [Compound I-19] | 0.005 to 0.05 µM
25 | O=C(Nc1cc(NCc2cn3cc(C4CC4)ccc3n2)ncn1)OCC(O)c1cccc(Cl)c1 (centres unmarked) [Compound I-9, 2-(3-chlorophenyl)-2-hydroxyethyl (6-(((6-cyclopropylimidazo[1,2-a]pyridin-2-yl)methyl)amino)pyrimidin-4-yl)carbamate] | 0.005 to 0.05 µM
26 | CC(OC(=O)Nc1cc(NCc2cn3cc(C4CC4)ccc3n2)ncn1)c1cccc(Cl)c1F (centres unmarked) [Compound I-7, 1-(3-chloro-2-fluorophenyl)ethyl (6-(((6-cyclopropylimidazo[1,2-a]pyridin-2-yl)methyl)amino)pyrimidin-4-yl)carbamate] | 0.005 to 0.05 µM

biological target: T1, plasma kallikrein (Homo sapiens, UniProt P03952); test: Neat human plasma assay (contact pathway-activated plasma, FXIIa, PFR-AMC substrate); format: biochemical; details: sodium citrate human plasma, 78% final plasma, 10 nM human FXIIa, 100 μM PFR-AMC, room temperature
T1 construct: from tissue; host or cells: sodium citrate collected human plasma (78% final)
T1 sequence (P03952 391-638 limits assumed): as the sequence (P03952 391-638 limits assumed) above
T1 sequence (P03952 20-390 partner limits assumed): as the sequence (P03952 20-390 partner limits assumed) above
Description: Neat Human and Rat Plasma Assay
To analyze inhibition of plasma kallikrein in an ex vivo setting, the potency of compounds was measure in contact pathway-activated plasma assays. In a fluorogenic peptide substrate assay, test compounds dissolved in DMSO were added to sodium citrate collected human or rat plasma in a 96-well microplate. Alternatively, citrated plasma was collected from rats administered the compounds orally or by IV. 10 nM of human FXIIa (Enzyme Research Laboratories) diluted in PKa buffer (20 mM Tris-HCl, pH 7.5, 150 mM NaCl, 1 mM EDTA, 0.1% PEG-8000, and 0.1% Triton X-100) was added to the plasma, followed by the 100 μM of the profluorescent, synthetic plasma kallikrein substrate PFR-AMC (also diluted in PKa buffer). Final plasma concentration in the reaction was 78%. Fluorescence was immediately monitored by excitation/emission wavelengths of 360 nm/480 nm respectively over a period of 5 minutes in a microplate reader. The resulting linear increase in fluorescence emission (reflecting PKa proteolysis of PFR-AMC substrate) was fit to extract a proteolytic rate (fluorescent units over time), and this rate was subsequently plotted against compound inhibitor concentration. Resulting plots were fit to a standard 4-parameter IC50/IC90 equation to determine min/max values, IC50/90, and slope. All experimental steps were performed at room temperature.

Row | SMILES | IC90
27 | O=C(Nc1cc(NCc2cn3cc(C4CC4)ccc3n2)ncn1)OCc1cc(Cl)ccc1-n1cnnn1 [Compound I-8, 5-chloro-2-(1H-tetrazol-1-yl)benzyl (6-(((6-cyclopropylimidazo[1,2-a]pyridin-2-yl)methyl)amino)pyrimidin-4-yl)carbamate] | ≤ 2.5 µM
28 | CC(OC(=O)Nc1cc(NCc2cn3cc(C4CC4)ccc3n2)ccn1)c1cccc(Cl)c1 (centres unmarked) [Compound I-15, 1-(3-chlorophenyl)ethyl (4-(((6-cyclopropylimidazo[1,2-a]pyridin-2-yl)methyl)amino)pyridin-2-yl)carbamate] | 2.5 to 7.5 µM
29 | O=C(Nc1cc(NCc2cn3cc(C4CC4)ccc3n2)ncn1)OCc1cc(Cl)ccn1 [Compound I-26, (4-chloropyridin-2-yl)methyl (6-(((6-cyclopropylimidazo[1,2-a]pyridin-2-yl)methyl)amino)pyrimidin-4-yl)carbamate] | ≤ 2.5 µM
